The subject of one test is HCT-116. The test can be described thus: Cytotoxicity against CD133 positive human HCT116 cells. The class given is functional, cell-based.
For test [1], the system named is MCF7. The test can be described thus: Cytotoxicity against human paclitaxel-resistant MCF7 cells after 72 hrs by MTT assay. It is filed as functional, cell-based. To be noted: MCF7, 72 h. (Tetrazolium dyes change colour on reduction, which living cells bring about.)
In test [2] the test system is MCF7. The test can be described thus: Cytotoxicity against human MCF7 cells. It is filed as functional, cell-based.
Another test deals with A121. The test can be described thus: Cytotoxicity against human A121 cells. It is filed as functional, cell-based.
The test system of the next test is A549. The test can be described thus: Cytotoxicity against human A549 cells. It is filed as functional, cell-based.
Test [3] in a line: Cytotoxicity against human MDA435/LCC6 cells. It is filed as functional, cell-based. To be noted: MDA-435/LCC6.
Test [4] is described as follows: Cytotoxicity against human CD133/CD44 positive PC3MM2 cells assessed as cell death at 0.01 to 10 uM after 72 hrs by MTT assay. The class given is functional.
Test [5] in a line: Cytotoxicity against human CD133/CD44 positive PPT2 cells assessed as cell death at 0.01 to 10 uM after 72 hrs by MTT assay. It is filed as functional.

Structures are written as SMILES.

For `CC(=O)O[C@@]12CO[C@@H]1C[C@H](O)[C@@]1(C)C(=O)[C@H](OC(=O)C3CC3)C3=C(C)[C@@H](OC(=O)[C@H](O)[C@H](C=C(C)C)NC(=O)OC(C)(C)C)C[C@@](O)([C@@H](OC(=O)c4ccccc4)[C@H]21)C3(C)C`, the results for the 50% inhibitory concentration (IC50) in the test with HCT-116 and in the test with MCF7 [1] were 0.28 nM and 80.5 nM, respectively.

For `CC(=O)O[C@@]12CO[C@@H]1C[C@H](O)[C@@]1(C)C(=O)[C@H](OC(=O)N(C)C)C3=C(C)[C@@H](OC(=O)[C@H](O)[C@H](C=C(C)C)NC(=O)OC(C)(C)C)C[C@@](O)([C@@H](OC(=O)c4ccccc4)[C@H]21)C3(C)C`, the midpoint of inhibition in the test on HCT-116, the IC50, lay at 0.83 nM.

Take `CC(=O)O[C@H]1C(=O)[C@@]2(C)[C@H]([C@H](OC(=O)c3ccccc3)[C@]34OC(=O)O[C@H]3[C@H](OC(=O)[C@H](O)[C@H](C=C(C)C)NC(=O)OC(C)(C)C)C(C)=C1C4(C)C)[C@]1(OC(C)=O)CO[C@@H]1C[C@@H]2O`: it took 66.7 nM to reach half-maximal inhibition in the test with MCF7 [1] (IC50).

For `CC(=O)O[C@H]1C(=O)[C@@]2(C)[C@H]([C@H](OC(=O)C=C(C)C)[C@]3(O)C[C@H](OC(=O)[C@H](O)[C@H](C=C(C)C)NC(=O)OC(C)(C)C)C(C)=C1C3(C)C)[C@]1(OC(C)=O)CO[C@@H]1C[C@@H]2O`, the IC50 with MCF7 [2], in the test with A121 and in the test with A549 was 0.9 nM each time.

Consider `CC(=O)O[C@@]12CO[C@@H]1C[C@H](O)[C@@]1(C)C(=O)[C@H](OC(=O)C3CC3)C3=C(C)[C@@H](OC(=O)[C@H](O)[C@H](C=C(C)C)NC(=O)OC(C)(C)C)C[C@@](O)([C@@H](OC(=O)c4cccc(OC(F)(F)F)c4)[C@H]21)C3(C)C`, for which half-maximal inhibition in the test with MCF7 [1] (IC50) required 34.9 nM.

As for `CC(=O)O[C@@]12CO[C@@H]1C[C@H](O)[C@@]1(C)C(=O)[C@H](OC(=O)N(C)C)C3=C(C)[C@@H](OC(=O)[C@H](O)[C@H](C=C(C)C)NC(=O)OC(C)(C)C)C[C@@](O)([C@@H](OC(=O)c4cccc(OC(F)(F)F)c4)[C@H]21)C3(C)C`, the IC50 (usually the concentration at which inhibition is half-maximal) in the test with MCF7 [1] is 31.4 nM.

`CC(=O)O[C@@]12CO[C@@H]1C[C@H](O)[C@@]1(C)C(=O)[C@H](OC(=O)N(C)C)C3=C(C)[C@@H](OC(=O)[C@H](O)[C@H](C=C(C)C)NC(=O)OC(C)(C)C)C[C@@](O)([C@@H](OC(=O)c4cccc(C)c4)[C@H]21)C3(C)C`: half-maximal inhibition in the test on HCT-116 (IC50) required 0.24 nM.

The compound `CC(=O)O[C@H]1C(=O)[C@@]2(C)[C@H]([C@@H]3OC(=O)c4ccccc4OC/C=C/CC[C@H](NC(=O)OC(C)(C)C)[C@@H](O)C(=O)O[C@H]4C[C@]3(O)C(C)(C)C1=C4C)[C@]1(OC(C)=O)CO[C@@H]1C[C@@H]2O` registered an IC50 in test [3] of 390 nM.

The compound `CC(=O)O[C@H]1C(=O)[C@@]2(C)[C@H]([C@H](OC(=O)c3cccc(OC(F)(F)F)c3)[C@]3(O)C[C@H](OC(=O)[C@H](O)[C@H](C=C(C)C)NC(=O)OC(C)(C)C)C(C)=C1C3(C)C)[C@]1(OC(C)=O)CO[C@@H]1C[C@@H]2O` displayed an IC50 with MCF7 [1] of 19 nM.

Regarding `CCC(=O)O[C@H]1C(=O)[C@@]2(C)[C@H]([C@H](OC(=O)c3cccc(OC)c3)[C@]3(O)C[C@H](OC(=O)[C@H](O)[C@H](C=C(C)C)NC(=O)OC(C)(C)C)C(C)=C1C3(C)C)[C@]1(OC(C)=O)CO[C@@H]1C[C@@H]2O`, the IC50 in the test on MCF7 [1] is 21.7 nM.

Regarding `CC(=O)O[C@@]12CO[C@@H]1C[C@H](O)[C@@]1(C)C(=O)[C@H](OC(=O)N(C)C)C3=C(C)[C@@H](OC(=O)[C@H](O)[C@H](C=C(F)F)NC(=O)OC(C)(C)C)C[C@@](O)([C@@H](OC(=O)c4ccccc4)[C@H]21)C3(C)C`, the IC50 in the test on HCT-116 was determined as 0.14 nM.

For the compound `COc1cccc2c1C(=O)c1c(O)c3c(c(O)c1C2=O)C[C@@](O)(C(=O)CO)C[C@@H]3O[C@H]1C[C@H](N)[C@H](O)[C@H](C)O1` [DOXORUBICIN], the IC50 with HCT-116 was found to be 78 nM.

Regarding `CO[C@]12C=C[C@](C)(O1)[C@@H](OC(=O)/C=C/c1cn(C)cn1)C[C@H]1C(C)=CC[C@H](C(C)C)[C@H]1/C=C\2CO[C@@H]1OC[C@@H](O)[C@@H](O)[C@@H]1OC(C)=O` [ELEUTHEROBIN], the Activity in test [4] and in test [5] was 60% in each case.

Take `CN(Cc1cnc2nc(N)nc(N)c2n1)c1ccc(C(=O)N[C@@H](CCC(=O)O)C(=O)O)cc1` [METHOTREXATE]: in the test on HCT-116, the midpoint of inhibition, the IC50, lay at 32.7 nM.

Turning to `CC(=O)O[C@H]1C(=O)[C@@]2(C)[C@H]([C@H](OC(=O)c3ccccc3)[C@]3(O)C[C@H](OC(=O)[C@H](O)[C@@H](NC(=O)c4ccccc4)c4ccccc4)C(C)=C1C3(C)C)[C@]1(OC(C)=O)CO[C@@H]1C[C@@H]2O` [PACLITAXEL], half-maximal inhibition with HCT-116 (IC50) required 33.8 nM.

`CC[C@@]1(O)C(=O)OCc2c1cc1n(c2=O)Cc2cc3c(CN(C)C)c(O)ccc3nc2-1` [TOPOTECAN] had an IC50 in the test on HCT-116 of 451 nM.

Source of the values: ChEMBL document CHEMBL4251666, “Quest for Efficacious Next-Generation Taxoid Anticancer Agents and Their Tumor-Targeted Delivery” (J Nat Prod, 2018).
